Reference: PMC10985536, “Aqueous solution and solid-state behaviour of L-homophenylalanine: experiment, modelling, and DFT calculations” (RSC Advances, 2024)
Where “and” joins values, the source holds several entries; their conditions need not be identical. Identical values can stand only once. Like-named read-outs stand apart in the source and are kept apart here.

Tests used:
[1] = heating 2 K min^-1, helium
Method: TG was performed with a Sensys Evo twin type instrument manufactured by Setaram Instrumentation, France. Grinded samples of about 4 to 7 mg L-Hpa were weighed into open 100 μL aluminium crucibles and analysed with a linear temperature program under a helium (5.0) atmosphere. For the measurement, the following heating program was employed: starting at 298 K heating to 673 K with 2 K min^−1 and subsequent cooling to 298 K with 5 K min^−1. […] Temperature calibration of the instrument is performed regularly using the melting temperatures of highly pure indium, tin, zinc and lead at different heating rates.

[2] = Aqueous solubility of L-Hpa as a function of temperature and pH (isothermal equilibration, HPLC); type: physicochemical; conditions: for Solubility in water: pure water (at pI)
Method: HPLC analysis was performed via a Dionex UltiMate3000 system manufactured by Thermo Scientific, Waltham. Two different HPLC methods were employed to quantify the L-Hpa concentration. The first method relies on a 150 mm long Crownpak (CR+) column (Daicel Corporation, Osaka) with a diameter of 4 mm and a particle size of 5 μm. Measurement took place at 298 K with an eluent flow rate of 0.8 mL min^−1 and an injection volume of 1 μL. Detection was achieved by light absorbance at 200 nm. Aqueous solution of perchloric acid with a pH of 2 was used as eluent. This method was developed in our lab but a similar one was employed in the literature.[14] The second method is based on another work,[31] where a Chirobiotic T column (Astec) with a length of 250 mm, a diameter of 4.6 mm and a particle size of 5 μm was utilized. 0.5 mL per L acetic acid was added to 0.01 mol per L ammonium acetate solution, which was then mixed with methanol in the volumetric ratio of 30/70 to produce the eluent. Measurements were done with an eluent flow rate of 0.5 mL min^−1 by adding 10 μL of sample and detection of light absorbance at 210 nm. Calibration was obtained by dissolving known amounts of L-Hpa in eluent and correlating the measured light absorbance to the concentration by linear regression.
pH measurements were performed with an MP225 pH meter with an InLab Micro Pro probe manufactured by Mettler Toledo, USA. The system is calibrated in regular intervals and each day the accuracy was checked by measuring pH standards at room temperature. At 298 K the pH values were stable and used for the evaluation, while for 328 K either the stable value or the value after 60 s was accepted to reduce the influence of cooling (and potential nucleation).
Equilibrium experiments at isothermal conditions were performed in tempered double jacketed glass reactors at different temperatures. First, L-Hpa, was mixed with water and dissolved completely by heating the suspension. The samples of about 10 mL were then brought to the target temperature at which they were allowed to equilibrate for at least 48 h while being stirred continuously. […] For selected samples at both saturation temperatures (298 K and 328 K), a solid–liquid separation was conducted by vacuum filtration and the obtained solids were analysed by HPLC and PXRD.
Most experiments for determination of pH-dependent solubilities were performed in the Crystalline multi reactor system, manufactured by Technobis Crystallization Systems, The Netherlands. […] Shortly before complete dissolution was detected visually, the buffer addition was stopped. […] On the next day, stirring was stopped, liquid samples were withdrawn and the pH was recorded. […]

[3] = design: method as in PMID 17874082; conditions: cited from earlier work

Compound | TG mass loss ([1]; at about 520 K) | TG mass loss ([1]; up to about 560 K) | Solubility in water ([2]; 298 K) | Solubility in water ([2]; 328 K) | Highest solubility observed ([2]; pH 1.07, 328 K, perchloric acid buffer) | Solubility increase at sufficiently low or high pH ([2]; pH 1.5 or 10.5) | pKa(2) (NH3), experimental [3] | pKa(1) (COOH), experimental [3]
N[C@@H](CCc1ccccc1)C(=O)O [L-Hpa, L-homophenylalanine] | ca. 10 wt% | 95 wt% | 0.0075 mol% | 0.0153 mol% and 0.015 mol% | 0.278 mol% | increase almost twentyfold | – | –
N[C@@H](Cc1ccccc1)C(=O)O [Phenylalanine] | – | – | – | – | – | – | 9.17 ± 0.06 | –
N[C@@H](Cc1c[nH]cn1)C(=O)O [histidine] | – | – | – | – | – | – | 9.14 ± 0.08 | 1.64 ± 0.45
